Results published in US9382568B2, “Determining the sensitivity of a cell to a drug” (RANDOX LABORATORIES LTD., priority 2008, dated 2016).

Legend:
[1] = test system: NCTC 13427 (lux+ cdd deficient E. coli MG 1655 expressing human dCK); experiment: Response of bioluminescent bacterial biosensor (growth OD600 and light output); format: cell-based
Description: (§1) Bacterial Strains, Plasmids and Growth Media. E. coli SØ5218 is a cdd-deficient strain expressing the human dCK cDNA on the IPTG-inducible pTrc99-A plasmid. E. coli MG1655 is a derivative of the wild-type E. coli K-12 with a requirement for pyrimidine in minimal medium, due to suboptimal expression of the orotate phosphoribosyltransferase gene coded for by pyrE. Both strains were made self-bioluminescent by transforming them with the broad-host vector pBBR1MCS-2 carrying the luxCDABE cassette from Photorhabdus luminescens as an EcoRI PCR fragment. Luria-Bertani (LB) medium was used for routine culturing of bacteria. The antibiotics ampicillin (to maintain pTrc-A) and kanamycin (to maintain pBBR1MCS-2) were added at 100 and 10 μg/ml, respectively. Growth inhibition experiments were performed in LB RPMI 1640 or in minimal salt medium (AB) plus 0.2% glucose, 0.2% vitamin-free casamino acids and supplemented with thiamine and leucine.
Construction of a cdd-deficient strain of E. coli MG 1655. A library of E. coli MG 1655 strains was constructed using transposition mutagenesis with P1 phage carrying the Tn10 transposon. Mutants carrying the transposon were selected for by plating on tetracycline (10 μg/ml) agar plates and cdd mutants were selected for by plating on to plates containing 10 μg/ml of the analogue 5-fluoro-2′ deoxycytidine which is toxic to E. coli expressing cdd. The phenotype of cdd mutants was confirmed by the absence of cytidine deaminase activity.
In order to measure Ara-C response in a nutrient rich intracellular environment, an alternative cdd-deficient strain of a bioluminescent E. coli MG1655 mutant was constructed using transposon mutagenesis, which was further transformed with pTrc99-A, to give IPTG inducible expression of dCK. […] One possible explanation for the light increase is that the DNA damage caused by Ara-CTP induces bioluminescence that could be used in DNA repair by a photo-reactivation process.
In order to increase the specificity of the proposed assay, direct effects of the active intracellular drug derivative, Ara-CTP, on the bacterial biosensor were monitored (FIG. 3A). […] To verify this, the assay was repeated with the addition of alkaline phosphatase at the start.

KG-1a cells [2] = experiment: Cell Titer-Glo luminescent cell viability (three day cytotoxicity) assay, cell line; format: cell-based; conditions: 25 μM Ara-C, 72 hours
Description: (§2) Cell lines, bone marrow and blood samples. The monocytic cell line KG-1a (DSMZ, Germany) was grown and maintained as a cell suspension in RPMI 1640 medium supplemented with 2 mM L-glutamine and 10% foetal calf serum. Mononuclear cell fractions were isolated from patient peripheral blood or bone marrow samples (n=8) using density gradient centrifugation (SG […]) followed by resuspension in RPMI 1640 medium prior to incubation with Ara-C. Cryopreserved bone marrow samples were thawed and re-suspended in RPMI 1640 medium prior to drug exposure.
(§3) Cell Lysis Assay. AML cell lines or patient derived samples were treated with 25 μM Ara-C for 90 min at 37° C. and 5% CO2, harvested, washed and resuspended in fresh RPMI 1640 medium. EDTA and saponin were added to final concentrations of 1.5 mM and 0.1%, respectively. Samples were then vortexed for 30 sec and cell debris were removed by centrifugation at 1027 g for 5 min. Samples from the lysate or supernatant were mixed with reporter bacteria, 1 mM of IPTG an 10 units of alkaline phosphatase. Bioluminescence and growth (OD600) of the bacteria were monitored in a multimode microplate reader. Sensitivity of AML cell lines or patient derived samples to Ara-C was also assayed using Cell Titer-Glo® Luminescent Cell Viability Assay kit (Promega). […]

[3] = test system: AML patient derived samples; experiment: Cell Titer-Glo luminescent cell viability (cytotox) assay, patient samples; format: cell-based, human; conditions: 25 μM Ara-C 72 hours
Description: as §2
(§4) Cell Lysis Assay. AML cell lines or patient derived samples were treated with 25 μM Ara-C for 90 min at 37° C. and 5% CO2, harvested, washed and resuspended in fresh RPMI 1640 medium. EDTA and saponin were added to final concentrations of 1.5 mM and 0.1%, respectively. Samples were then vortexed for 30 sec and cell debris were removed by centrifugation at 1027 g for 5 min. Samples from the lysate or supernatant were mixed with reporter bacteria, 1 mM of IPTG an 10 units of alkaline phosphatase. Bioluminescence and growth (OD600) of the bacteria were monitored in a multimode microplate reader. Sensitivity of AML cell lines or patient derived samples to Ara-C was also assayed using Cell Titer-Glo® Luminescent Cell Viability Assay kit (Promega). Samples were treated with 25 μM Ara-C for 72 hours at 37° C. and 5% CO2 before measuring intracellular levels of ATP according to manufacturer's instructions. Paired t-tests were used to analyse significant differences in bioluminescence output between control and treated assay samples.

KG-1a cells [4] = experiment: Cell lysis assay with bioluminescent reporter bacteria, cell line; format: cell-based; conditions: KG-1a treated with 25 μM Ara-C, p=0.0001
Description: as §2, §3

[5] = test system: AML patient derived samples; experiment: Cell lysis assay with bioluminescent reporter bacteria, patient samples; format: cell-based, human; conditions: for Bioluminescent Assay (sensitive): 25 μM Ara-C 90 min; for Treatment % difference in peak RLU a) L:LI / Treatment % difference in peak RLU b) L:LIP / Treatment % difference in peak RLU c) LI:LIP: drug treated minus control
Description: as §2, §4
A representation of light output during the bioluminescent assay for patients who are metabolic sensitive, metabolic resistant, metabolic partially resistant and uptake resistant is shown in FIG. 5.
Table 3 validates the application of the bioluminescent assay using relative percentage differences in peak light output from the various treatments to identify resistant and sensitive patients. Data shown in Table 3 is computed according to the equation {[RLU drug treated sample (LIP/LI)−RLU control (LIP/LI)]×100}, using c) as an example.

E. coli SØ5218 [6] = experiment: Growth of cdd-deficient E. coli mutant SØ5218 expressing human dCK; format: cell-based; conditions: rich growth medium (data not shown)
Description: Ara-C has no effect on Escherichia coli as it lacks dCK and deaminates Ara-C into Ara-uracil through the activity of deoxycytidine deaminase (cdd). Wang et al., Antimicrob. Agents. […] The Ara-C effect on growth was completely abolished when assayed in the absence of the dCK inducible […], IPTG, indicating human dCK expression in the bacteria leads to Ara-CTP incorporation into bacterial DNA.
as §1, with “leucine. […]” for “leucine.”

Escherichia coli = conditions: lacks dCK, deaminates Ara-C via cdd; cited from earlier work
AML [7] = experiment: Clinical outcome of AML patients (Ara-C used in induction therapy); format: in vivo, human; parameters: key: NR = No remission; CR = Complete remission
Description: The assay was evaluated using a KG-1a cell line and AML samples from patients with known response to Ara-C used in induction therapy. FIG. 6 depicts the light output from the lysate of the Ara-C sensitive cell line KG-1a treated with high (25 μM) Ara-C concentrations. […] The three day cytotoxicity test confirmed that KG-1a cells are sensitive to Ara-C.
The cell lysis assay was applied to clinical samples of peripheral blood ([…]) from AML patients. These preliminary assays, conducted on 7 clinical samples, gave 100% correlation with clinical response to therapy.

AML [8] = experiment: as above; format: in vivo, human; parameters: key: NR = No remission; CR = Complete remission; conditions: Table 2 patient 4, diagnosis M4
E. coli SØ5218 [9] = conditions: upon expression of human dCK gene (IPTG), Wang et al. 1998; cited from earlier work
[10] = Table 2 patient 1, diagnosis M2
[11] = Table 2 patient 2, diagnosis M4
[12] = Table 2 patient 3, diagnosis M2
[13] = Table 2 patient 4, diagnosis M4
[14] = Table 2 patient 5, diagnosis M4
[15] = Table 2 patient 6, diagnosis M0
[16] = Table 2 patient 7, diagnosis M3

## Nc1ccn([C@@H]2O[C@H](COP(=O)(O)OP(=O)(O)OP(=O)(O)O)[C@@H](O)[C@@H]2O)c(=O)n1 [Ara-CTP]
[1]; Ara-CTP added without alkaline phosphatase, FIG. 3A
  direct entry into reporter bacteria: does not directly enter reporter bacteria
[1]; alkaline phosphatase added at the start, FIG. 3B
  time after which increase in light output was evident: 3 to 5 h
[1]; no alkaline phosphatase added
  time of growth after which increase in light output was observed: at least 15 h

## Nc1ccn([C@@H]2O[C@H](CO)[C@@H](O)[C@@H]2O)c(=O)n1 [Ara-C]
KG-1a cells [2]
  three day cytotoxicity test: sensitive
[3]; [10]
  Cytotox Assay (DLO): 84%
[3]; [11]
  Cytotox Assay (DLO): 99%
[3]; [12]
  Cytotox Assay (DLO): 79%
[3]; [13]
  Cytotox Assay (DLO): 99%
[3]; [14]
  Cytotox Assay (DLO): 62%
[3]; [15]
  Cytotox Assay (DLO): 5%
[3]; [16]
  Cytotox Assay (DLO): 91%
KG-1a cells [4]
  light output from IPTG-induced lysate with BAP: significant increase in the light output
  light output from IPTG-induced lysate without BAP: significant increase in the light output
[5]; [10]
  Bioluminescent Assay (sensitive): No
[5]; [11]
  Bioluminescent Assay (sensitive): Yes
[5]; [12]
  Bioluminescent Assay (sensitive): No
[5]; [13]
  Bioluminescent Assay (sensitive): Yes
[5]; [14]
  Bioluminescent Assay (sensitive): No
[5]; [15]
  Bioluminescent Assay (sensitive): No
[5]; [16]
  Bioluminescent Assay (sensitive): No
[5]; Table 3 patient 1
  interaction of the drug with the patient sample (uptake and metabolism category): take up and metabolise the drug
  Treatment % difference in peak RLU a) L:LI: −10.25%
  Treatment % difference in peak RLU b) L:LIP: 19.20%
  Treatment % difference in peak RLU c) LI:LIP: 24.19%
[5]; Table 3 patient 2
  interaction of the drug with the patient sample (uptake and metabolism category): take up and metabolise the drug
  Treatment % difference in peak RLU a) L:LI: −4.00%
  Treatment % difference in peak RLU b) L:LIP: 62.40%
  Treatment % difference in peak RLU c) LI:LIP: 48.03%
[5]; Table 3 patient 3
  interaction of the drug with the patient sample (uptake and metabolism category): takes up but does not metabolise the drug
  Treatment % difference in peak RLU a) L:LI: −81.04%
  Treatment % difference in peak RLU b) L:LIP: −120.00%
  Treatment % difference in peak RLU c) LI:LIP: −4.51%
[5]; Table 3 patient 4, not clinically confirmed
  interaction of the drug with the patient sample (uptake and metabolism category): resistant to take up of the drug
[5]; Table 3 patient 4
  Treatment % difference in peak RLU a) L:LI: 2.28%
  Treatment % difference in peak RLU b) L:LIP: 3.28%
  Treatment % difference in peak RLU c) LI:LIP: 0.88%
[5]; Table 3 patient 5
  Treatment % difference in peak RLU a) L:LI: −61.46%
  Treatment % difference in peak RLU b) L:LIP: −98.39%
  Treatment % difference in peak RLU c) LI:LIP: −13.87%
[5]; Table 3 patient 6
  Treatment % difference in peak RLU a) L:LI: −13.59%
  Treatment % difference in peak RLU b) L:LIP: −7.03%
  Treatment % difference in peak RLU c) LI:LIP: 5.50%
[5]; Table 3 patient 7
  Treatment % difference in peak RLU a) L:LI: −16.37%
  Treatment % difference in peak RLU b) L:LIP: −16.37%
  Treatment % difference in peak RLU c) LI:LIP: 1.20%
E. coli SØ5218 [6]
  response of SØ5218: did not respond
Escherichia coli
  effect on Escherichia coli: no effect
AML [7]; [10]
  Clinical Outcome: NR
AML [7]; [11]
  Clinical Outcome: CR
AML [7]; [12]
  Clinical Outcome: NR
AML [7]; [14]
  Clinical Outcome: NR
AML [7]; [15]
  Clinical Outcome: NR
AML [7]; Table 2 patient 7, diagnosis M3 (Remission, death)
  Clinical Outcome: Remission
AML [7]; Table 3 patient 1
  Clinical Outcome: sensitive
AML [7]; Table 3 patient 2
  Clinical Outcome: sensitive
AML [7]; Table 3 patient 3
  Clinical Outcome: resistant
AML [7]; Table 3 patient 7
  Clinical Outcome: resistant
AML [8]
  Clinical Outcome: CR
E. coli SØ5218 [9]
  relative growth of SØ5218: reduced relative growth
[1]; drug-treated cultures, IPTG present, p=0.0001
  light output (bioluminescence, RLU) of reporter strain: significant increase in light output
[1]; in the presence of Ara-C, induced by IPTG, nutrient rich medium
  growth (OD600) of reporter strain: reduced growth
[1]; low concentrations of Ara-C, FIG. 2
  lowest concentration the bacterial biosensor responds to: 0.05 µM
